Test results taken from patent publication US4791135A (priority 1987, dated 1988).

Experiments:
physchem = format: physicochemical
Procedure: To compare the relative stability of the new agents vs. artesunic acid, stability studies of compound 8d and compound 1 were conducted in 2.5% K2 CO3 /D2 O solution at room temperature and were monitored by PMR. [drawing 8]
To a 5 mm NMR tube containing 10 mg of sample was added 0.5 mL of 2.5% K2 CO3 /D2 O solution. The initial spectrum of the solution was taken within 5 minutes, and again at intervals thereafter. The extent of hydrolysis was estimated by the following equation:
% Decomposition=(B/2A+B)×100
where A=integration of H-10 (5.80 ppm, d, J=10.8 Hz, 1H) and H-12 (5.71 ppm, s, 1H) of artesunate; B=integration of the singlet at 2.42 ppm for the potassium succinate formed. With time, the intensity of potassium succinate (2.42 ppm) signal increases, while that of H-10 and H-12 of artesunate decreases. The stability study of compound 1 in 5% NaHCO3 /D2 O was also carried out by the same procedure.

[1] = tested on: Plasmodium falciparum D-6 (Sierra Leone clone) and W-2 (Indochina clone); assay: In vitro antimalarial activity against both clones, summarised in words; format: cell-based
Procedure: (§1) The former clone is a strain that is resistant to mefloquine and the latter, to chloroquine, pyrimethamine, sulfadoxine, and quinine.
(§2) In vitro assays were conducted using a modification of the semiautomated microdilution technique of Desjardins et al., Antimicrob. Agents Chemoether., 1979, Volume 16, page 710 and Milhous et al., Antimicrob. Agents Chemother., 1985, Volume 27, page 525. Two P. falciparum malaria parasite clones, designated as Indochina (W-2) and Sierra Leone (D-6), were utilized in susceptibility testing. They were derived by direct visualization and micromanipulation from patient isolates obtained by the Centers for Disease Control, Atlanta, GA in 1980 and 1982, respectively. The patients had acquired infections either in Vietnam or Sierra Leone. The Indochina clone is resistant to the antimalarials chloroquine, sulfadoxine, pyrimethamine, and quinine, whereas the Sierra Leone, is resistant to mefloquine but susceptible to chloroquine, quinine, sulfadoxine, and pyrimethamine. Test compounds were initially dissolved in DMSO and 70% ethanol and diluted in RPMI 1640 culture medium with 10% human plasma to 400 fold. Drugs were subsequently further diluted using the Cetus Pro/Pette (Perkin-Elmer Corp., Norwalk, CT) over a range of 1.56-100×10^-9 molar. Parasite inocula (at 0.5% parasitemia and a 1% hematocrit) were incubated for 24 hours and added to equimolar concentrations of each test compound prior to the addition of ^3 H-hypoxanthine. After a further incubation of 18 hours, particulate matter was harvested from each microtiter well using an automated cell harvester (Skatron, Inc., Sterling, VA). Uptake of ^3 H-hypoxanthine was measured using a scintillation spectrophotometer (Model LS3801, Beckman Instruments, Irvine, CA). Concentration-response data were analyzed by nonlinear regression and the IC50 's (50% inhibitory concentrations) for each compound were calculated.

Water solubility = format: physicochemical
[2] = tested on: P. falciparum Sierra Leone (D-6) clone; assay: In vitro antimalarial susceptibility, 3H-hypoxanthine uptake, Sierra Leone (D-6) clone; format: cell-based, Plasmodium falciparum
Procedure: as §1
as §2, with “CA).” for “CA). Concentration-response data were analyzed by nonlinear regression and the IC50 's (50% inhibitory concentrations) for each compound were calculated.”

[3] = tested on: P. falciparum Indochina (W-2) clone; assay: In vitro antimalarial susceptibility, 3H-hypoxanthine uptake, Indochina (W-2) clone; format: cell-based, Plasmodium falciparum; conditions: Plasmodium falciparum
Procedure: as §1
as §2, with “CA).” for “CA). Concentration-response data were analyzed by nonlinear regression and the IC50 's (50% inhibitory concentrations) for each compound were calculated.”

cerebral malaria = conditions: background; cited from earlier work
malaria [4] = conditions: background, reported; cited from earlier work
malaria [5] = conditions: background; cited from earlier work
[6] = Stability of the free acid (PMR spectrum on standing); format: physicochemical; conditions: gradual changes in PMR spectrum on standing
From the text: Hydrolysis of the ester (compound 5a) with 2.5% KOH/MeOH gave the corresponding potassium salt which was purified by reverse phase chromatography. Conversion of the salt (compound 7a) to the free acid (compound 8a) was achieved by acidification with acetic acid. The free acid appears to be unstable, as evidenced by gradual changes seen in its PMR spectrum on standing. This may be due to the instability of the acetal or ketal functions of the molecule under acidic conditions. In contrast, compounds 7b through 7d were smoothly converted to their corresponding stable free acids (compounds 8b-d).

SMILES: CC1CCC2C(C)C(OCc3ccc(C(=O)O)cc3)OC3OC4(C)CCC1C32OO4 (stereo not shown) [Compound 7d, Potassium p-(10-Dihydroartemisininoxy)methylbenzoate]
- stability in solution (physchem): stable in solution
- in vitro antimalarial activity relative to parent compounds ([1]; in words, relative to artemisinin (3) or compounds 2 and 3): comparable in vitro activity to artemisinin
- water solubility (Water solubility): water soluble
- In vitro antimalarial activity IC50, Sierra Leone (D-6) [2]: 1.74 ng/mL
- IC50 [3]: 0.92 ng/mL

SMILES: C[C@@H]1CC[C@H]2[C@@H](C)C(O)O[C@@H]3O[C@@]4(C)CC[C@@H]1[C@]32OO4 (stereo partly shown) [Compound 2, Dihydroartemisinin]
- efficacy against cerebral malaria in man (cerebral malaria): proven efficacious against cerebral malaria in man
- therapeutic activity compared with its parent compound artemisinin (malaria [4]): more therapeutically active than its parent compound
- cross-resistance to chloroquine (malaria [5]): Neither artemisinin nor dihydroartemisinin exhibit cross-resistance to chloroquine
- cross-resistance to mefloquine, chloroquine, pyrimethamine, sulfadoxine, quinine ([1]; D-6 and W-2 clones): not cross-resistant

SMILES: CC1CCC2C(C)C(OCC(=O)O)OC3OC4(C)CCC1C32OO4 (stereo not shown) [Compound 8a, 2-(10-Dihydroartemisininoxy)acetic acid]
- stability of free acid [6]: unstable
